# Laboratory results published in patent publication US20180339976A1, “NOVEL TRIAZOLE DERIVATIVES” (priority 2015, published 2018).
# Assay: Log P by HPLC on reversed phase columns (EEC directive 79/831 Annex V.A8)
# Type: physicochemical
# Conditions: not given
# Protocol: Measurement of Log P values was performed according to EEC directive 79/831 Annex V.A8 by HPLC (High Performance Liquid Chromatography) on reversed phase columns with the following methods: • ^[a]
# If more than one Log P value is available within the same method, all the values are given and separated by “+”.
# Lambda-max-values were determined using UV-spectra from 200 nm to 400 nm and the peak values of the chromatographic signals.
LogP,chromatographic logP,SMILES
1.86^[a],–,OC(Cc1ccncc1Cl)(Cn1cncn1)c1ccc(Cl)cc1 (centres unmarked) [Example I-11]
1.76^[a],–,OC(Cc1ccncc1Cl)(Cn1cncn1)c1ccc(F)cc1F (centres unmarked) [Example I-30]
1.13^[a],–,OC(Cc1ccncc1F)(Cn1cncn1)c1ccccc1 (centres unmarked) [Example I-36]
–,2.15,"OC(Cc1cccnc1Cl)(Cn1cncn1)c1ccc(Cl)cc1F (centres unmarked) [Example I-29, 2-(4-chloro-2-fluoro-phenyl)-1-(2-chloro-3-pyridyl)-3-(1,2,4-triazol-1-yl)propan-2-ol]"
1.47^[a],–,N#Cc1ccc(C(O)(Cc2cccnc2Cl)Cn2cncn2)cc1 (centres unmarked) [Example I-35]
2.27^[a],–,OC(Cc1ccnc(Cl)c1F)(Cn1cncn1)c1ccccc1Cl (centres unmarked) [Example I-07]
2.23^[a],–,OC(Cc1ccnc(Cl)c1F)(Cn1cncn1)c1ccc(Cl)cc1 (centres unmarked) [Example I-10]
1.99^[a],–,OC(Cc1cccnc1Cl)(Cn1cncn1)c1ccc(Cl)cc1 (centres unmarked) [Example I-52]
1.69^[a],–,OC(Cc1ccnc(Cl)c1)(Cn1cncn1)c1ccc(F)cc1 (centres unmarked) [Example I-05]
1.26^[a],–,OC(Cc1ccncc1F)(Cn1cncn1)c1ccc(F)cc1 (centres unmarked) [Example I-13]
2.43^[a],–,OC(Cc1cc(F)ncc1Cl)(Cn1cncn1)c1ccc(Cl)cc1 (centres unmarked) [Example I-28]
2.47^[a],–,COC(Cc1ccnc(Cl)c1F)(Cn1cncn1)c1ccc(F)cc1F (centres unmarked) [Example I-57]
1.86^[a],–,OC(Cc1ccnc(Cl)c1)(Cn1cncn1)c1ccc(F)cc1F (centres unmarked) [Example I-44]
1.54^[a],–,OC(Cc1ccncc1F)(Cn1cncn1)c1ccc(Cl)cc1 (centres unmarked) [Example I-31]
2.27^[a],–,OC(Cc1cc(Cl)ncc1F)(Cn1cncn1)c1ccc(Cl)cc1 (centres unmarked) [Example I-40]
3.02^[a],–,OC(Cc1cc(F)ncc1Cl)(Cn1cncn1)c1ccc(Oc2ccccc2)cc1 (centres unmarked) [Example I-34]
2.69^[a],–,OC(Cc1ccnc(Cl)c1)(Cn1cncn1)c1ccc(Oc2ccc(F)cc2F)cc1 (centres unmarked) [Example I-25]
1.61^[a],–,OC(Cc1cccnc1Cl)(Cn1cncn1)c1ccccc1 (centres unmarked) [Example I-51]
1.97^[a],–,OC(Cc1cccnc1Cl)(Cn1cncn1)c1cccc(Cl)c1 (centres unmarked) [Example I-17]
1.91^[a],–,OC(Cc1ccnc(Cl)c1F)(Cn1cncn1)c1ccc(F)cc1 (centres unmarked) [Example I-23]
2.69^[a],–,OC(Cc1ccnc(Cl)c1F)(Cn1cncn1)c1ccc(Cl)cc1Cl (centres unmarked) [Example I-09]
2.65^[a],–,CC(C)(C)c1noc(-c2ccc(C(O)(Cc3ccncc3Cl)Cn3cncn3)cc2)n1 (centres unmarked) [Example I-38]
1.60^[a],–,OC(Cc1ccnc(Cl)c1)(Cn1cncn1)c1ccccc1 (centres unmarked) [Example I-37]
–,3.31,"Fc1cc(Cl)ccc1C1(Cc2cccnc2Cl)CO1 (centres unmarked) [XII-1, 2-chloro-3-[[2-(4-chloro-2-fluoro-phenyl)oxiran-2-yl]methyl]pyridine]"
1.86^[a],–,OC(Cc1cc(Cl)ncc1F)(Cn1cncn1)c1ccccc1 (centres unmarked) [Example I-48]

SMILES,LogP,chromatographic logP
OC(Cc1cc(F)ncc1Cl)(Cn1cncn1)c1ccc(F)cc1F (centres unmarked) [Example I-41],2.35^[a],–
"OC(Cc1ccnc(Cl)c1F)(Cn1cncn1)c1ccc(F)cc1F (centres unmarked) [Example I-08, 1-(2-chloro-3-fluoro-4-pyridyl)-2-(2,4-difluorophenyl)-3-(1,2,4-triazol-1-yl)propan-2-ol]",–,2.14
OC(Cc1ccnc(Cl)c1F)(Cn1cncn1)c1ccc(Oc2ccccc2)cc1 (centres unmarked) [Example I-46],2.84^[a],–
OC(Cc1ccnc(Cl)c1)(Cn1cncn1)c1ccc(Cl)cc1Cl (centres unmarked) [Example I-50],2.42^[a],–
OC(Cc1cc(Cl)ncc1F)(Cn1cncn1)c1ccc(F)cc1F (centres unmarked) [Example I-45],2.13^[a],–
OC(Cc1ccncc1Cl)(Cn1cncn1)c1ccc(Oc2ccc(F)cc2F)cc1 (centres unmarked) [Example I-19],2.57^[a],–
OC(Cc1cc(F)ncc1Cl)(Cn1cncn1)c1ccc(F)cc1 (centres unmarked) [Example I-15],2.12^[a],–
OC(Cc1ccncc1Cl)(Cn1cncn1)c1ccc(Oc2ccccc2)cc1 (centres unmarked) [Example I-01],2.46^[a],–
OC(Cc1ccncc1F)(Cn1cncn1)c1ccc(Cl)cc1Cl (centres unmarked) [Example I-53],2.00^[a],–
OC(Cc1cc(F)ncc1Cl)(Cn1cncn1)c1ccccc1 (centres unmarked) [Example I-14],2.02^[a],–
OC(Cc1ccncc1Cl)(Cn1cncn1)c1ccc(Oc2ccc(Cl)cc2)cc1 (centres unmarked) [Example I-06],2.90^[a],–
"OC(Cc1ccnc(Cl)c1F)(Cn1cncn1)c1ccc(F)cc1F (single isomer, unassigned) [Example I-55]",2.21^[a],–

# Same assay, conditions: Table 1, formula (I); method [a]: LC-UV, acidic range, 0.1% formic acid in water and acetonitrile
row,SMILES,LogP
1,OC(Cc1cc(Cl)ncc1F)(Cn1cncn1)c1ccc(-c2ccccc2)cc1 (centres unmarked) [Example I-26],2.88^[a]
2,OC(Cc1ccncc1Cl)(Cn1cncn1)c1ccc(-c2ccccc2)cc1 (centres unmarked) [Example I-02],2.46^[a]
3,OC(Cc1ccnc(Cl)c1)(Cn1cncn1)c1ccc(-c2ccccc2)cc1 (centres unmarked) [Example I-39],2.57^[a]

# Same assay, conditions: Table 2, epoxides of formula (XII); method [a]: LC-UV, acidic range, 0.1% formic acid in water and acetonitrile
row,SMILES,LogP
1,Fc1cnccc1CC1(c2ccc(Cl)cc2Cl)CO1 (centres unmarked) [XII-3],3.19^[a]
2,Fc1c(CC2(c3ccc(Oc4ccccc4)cc3)CO2)ccnc1Cl (racemic) [XII-48],4.20^[a]
3,Fc1ccc(C2(Cc3cc(F)ncc3Cl)CO2)c(F)c1 (racemic) [XII-35],3.46^[a]
4,Fc1ccc(C2(Cc3c(Cl)cncc3Cl)CO2)c(F)c1 (racemic) [XII-55],3.68^[a]
5,Fc1ccc(C2(Cc3cc(Cl)ncc3F)CO2)cc1 (centres unmarked) [XII-16],3.15^[a]
6,Fc1ccc(Oc2ccc(C3(Cc4ccncc4Cl)CO3)cc2)c(F)c1 (centres unmarked) [XII-33],3.80^[a]
7,Fc1c(CC2(c3ccccc3Cl)CO2)ccnc1Cl (racemic) [XII-49],3.47^[a]
8,N#Cc1ccc(C2(Cc3cccnc3Cl)CO2)cc1 (centres unmarked) [XII-26],2.35^[a]
9,Fc1ccc(C2(Cc3ccnc(Cl)c3)CO2)cc1 (centres unmarked) [XII-14],2.76^[a]
10,Fc1ccc(C2(Cc3cc(F)ncc3Cl)CO2)cc1 (racemic) [XII-39],3.37^[a]
11,Clc1cnccc1CC1(c2c(Cl)cccc2Cl)CO1 (racemic) [XII-62],3.02^[a]
12,Fc1cnccc1CC1(c2ccc(Oc3ccccc3)cc2)CO1 (centres unmarked) [XII-7],3.37^[a]
13,Clc1cncc(Cl)c1CC1(c2ccc(Oc3ccccc3)cc2)CO1 (racemic) [XII-51],4.76^[a]
14,Fc1cc(CC2(c3ccccc3Cl)CO2)c(Cl)cn1 (racemic) [XII-38],3.80^[a]
15,Clc1cnccc1CC1(c2ccccc2Cl)CO1 (centres unmarked) [XII-29],3.02^[a]
16,Fc1cc(CC2(c3ccc(-c4ccccc4)cc3)CO2)c(Cl)cn1 (racemic) [XII-42],4.64^[a]
17,FC(F)(F)c1ccc(C2(Cc3cccnc3Cl)CO2)cc1 (centres unmarked) [XII-25],3.46^[a]
18,Clc1cncc(Cl)c1CC1(c2ccc(-c3ccccc3)cc2)CO1 (racemic) [XII-53],4.89^[a]
19,Fc1ccc(Oc2ccc(C3(Cc4ccncc4F)CO3)cc2)c(F)c1 (centres unmarked) [XII-5],3.37^[a]
20,Fc1ccc(C2(Cc3ccnc(Cl)c3F)CO2)c(F)c1 (racemic) [XII-47],3.26^[a]
21,Clc1cnccc1CC1(c2ccc(-c3ccccc3)cc2)CO1 (centres unmarked) [XII-28],3.85^[a]
22,Fc1c(CC2(c3ccc(Cl)cc3Cl)CO2)ccnc1Cl (racemic) [XII-46],3.02^[a]
23,Fc1ccc(Oc2ccc(C3(Cc4ccnc(Cl)c4)CO3)cc2)c(F)c1 (centres unmarked) [XII-12],3.85^[a]

row,SMILES,LogP
1,Fc1c(CC2(c3ccc(Cl)cc3)CO2)ccnc1Cl (racemic) [XII-43],3.58^[a]
2,Fc1cc(CC2(c3ccc(Oc4ccccc4)cc3)CO2)c(Cl)cn1 (racemic) [XII-40],4.57^[a]
3,Fc1ccc(C2(Cc3cc(Cl)ncc3F)CO2)c(F)c1 (centres unmarked) [XII-20],3.24^[a]
4,Fc1ccc(C2(Cc3ccncc3F)CO2)cc1 (centres unmarked) [XII-4],2.23^[a]
5,Clc1cncc(Cl)c1CC1(c2ccccc2)CO1 (racemic) [XII-58],3.53^[a]
6,Clc1ccc(C2(Cc3c(Cl)cncc3Cl)CO2)c(Cl)c1 (racemic) [XII-54],4.76^[a]
7,Fc1cccc(F)c1C1(Cc2ccncc2Cl)CO1 (centres unmarked) [XII-66],2.50^[a]
8,Fc1cnc(Cl)cc1CC1(c2ccc(Cl)cc2Cl)CO1 (centres unmarked) [XII-19],4.17^[a]
9,Fc1cnc(Cl)cc1CC1(c2ccc(Oc3ccccc3)cc2)CO1 (centres unmarked) [XII-18],4.23^[a]
10,Clc1ccc(C2(Cc3ccncc3Cl)CO2)c(Cl)c1 (centres unmarked) [XII-31],3.06^[a]
11,Fc1ccc(C2(Cc3ccncc3Cl)CO2)cc1 (centres unmarked) [XII-27],2.65^[a]
12,Clc1cc(CC2(c3ccc(-c4ccccc4)cc3)CO2)ccn1 (centres unmarked) [XII-13],3.89^[a]
13,Fc1ccc(C2(Cc3ccnc(Cl)c3)CO2)c(F)c1 (centres unmarked) [XII-11],2.93^[a]
14,CC(C)(C)c1noc(-c2ccc(C3(Cc4ccncc4Cl)CO3)cc2)n1 (centres unmarked) [XII-65],4.25^[a]
15,Fc1ccc(Oc2ccc(C3(Cc4ccnc(Cl)c4F)CO3)cc2)c(F)c1 (racemic) [XII-44],4.20^[a]
16,Clc1ccc(C2(Cc3c(Cl)cncc3Cl)CO2)cc1 (racemic) [XII-57],4.10^[a]
17,Clc1cnccc1CC1(c2cccc(Cl)c2Cl)CO1 (racemic) [XII-61],3.53^[a]
18,Fc1ccc(Oc2ccc(C3(Cc4cc(F)ncc4Cl)CO3)cc2)c(F)c1 (racemic) [XII-41],4.51^[a]
19,Cc1cc(C)c(C2(Cc3ccncc3Cl)CO2)c(C)c1 (racemic) [XII-60],4.15^[a]
20,Fc1cc(CC2(c3ccc(Cl)cc3Cl)CO2)c(Cl)cn1 (racemic) [XII-36],4.45^[a]
21,Fc1cnc(Cl)cc1CC1(c2ccc(Cl)cc2)CO1 (centres unmarked) [XII-17],3.56^[a]
22,Clc1cccc(C2(Cc3cccnc3Cl)CO2)c1 (centres unmarked) [XII-23],3.24^[a]
23,Clc1ccccc1COc1ccc(C2(Cc3ccncc3Cl)CO2)cc1 (racemic) [XII-64],4.30^[a]
